# Measured values as given in US5625031A, “Peptide inhibitors of the p33^cdk2 and p34^cdc2 cell cycle regulatory kinases and human papillomavirus E7 oncoprotein” (Bristol-Myers Squibb Company, priority 1994, dated 1997).
# Where two headings read alike, the source gives them in different places. Where a SMILES comes first, the peptide text is derived from it. Where no end group is shown, it is not given here.
# What was measured:
# p34^cdc2 [1] = target: T1, p34^cdc2 (Homo sapiens, UniProt P06493); assay: ELISA based competition assay: p34^cdc2 kinase from cell extracts binding to a p107 30mer coated plate; set-up: endogenous in cells; HeLa per the general methods
# T1 sequence (P06493 whole entry): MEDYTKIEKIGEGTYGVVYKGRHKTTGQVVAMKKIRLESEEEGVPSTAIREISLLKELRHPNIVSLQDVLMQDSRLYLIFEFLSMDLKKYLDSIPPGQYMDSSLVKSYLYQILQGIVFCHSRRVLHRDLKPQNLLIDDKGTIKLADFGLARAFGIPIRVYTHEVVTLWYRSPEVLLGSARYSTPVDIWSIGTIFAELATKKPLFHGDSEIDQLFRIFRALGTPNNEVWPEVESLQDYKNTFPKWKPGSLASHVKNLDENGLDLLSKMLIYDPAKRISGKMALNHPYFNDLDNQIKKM
# Excerpt: An ELISA based assay was developed to measure the activity of p107 peptides and their derivatives. A 96-well cluster plate coated with the p107 30mer binds to p34^cdc2 kinase from cell extracts. This binding is easily detectable with anti-p34^cdc2 antibodies and can be used to quantitate the affinity of the p107 wild type and mutant peptides for the p34^cdc2 kinase in addition to the kinase inhibition assay described in Example 7. A summary of all modifications to the original p107 peptides and their effect on binding and kinase inhibition is presented in Table 1. The affinity of the p107 9mer peptide for p34^cdc2 kinase is approximately 10 μM as measured by the ELISA based competition assay, which is in agreement with the binding constant approximated from the kinase inhibition assay as described in Example 7.
# p34^cdc2 [2] = target: T1, p34^cdc2; assay: Peptide inhibition of p34^cdc2 immune complex histone H1 kinase activity; type: biochemical; set-up: endogenous in cells; host or cells: HeLa; settings: for inhibition at 50 µM: 50 μM peptide, p34^cdc2 immune complex from HeLa cells, histone H1 substrate, read-out: p34^cdc2 Inhib. (%)
# Method: (§1) HeLa Cell Lysates: HeLa cell extracts served as a source of p34^cdc2 and p33^cdk2 and were prepared as follows. HeLa cells were lysed in 20 mM N-[2-hydroxyethyl]piperazine-N'-[2-[…]] (HEPES), pH 7.0, 150 mM NaCl, 5 mM sodium vanadate, 10 mM Na4 P2 O7, 1 mM ZnCl2, 2 mM ethylene-diaminetetraacetic acid (EDTA), 2 mM ethylene glycol-bis(β-aminoethyl ether)-N,N,N',N'-tetraacetic acid (EGTA), 1 mM dithiothreitol (DTT), 0.25% (v:v) NP-40, 1 mM Benzamidine, 1 mM phenylmethylsulfonyl fluoride (PMSF) and 20 μg/ml each: N2 S2 O3, leupeptin, Antipan and Pepstatin, followed by centrifugation to remove cell debris.
# Immunoprecipitation of p34^cdc2 : Immunoprecipitation of p34^cdc2 from HeLa cell extracts was performed using previously reported procedures (Harlow et al. (1988) in: Antibodies: A Laboratory Manual, ed. Harlow and Lane, Cold Spring Harbor: Cold Spring Harbor Laboratory, pp 421-470) and anti-p34^cdc2 antibody, G6 (Gibco, BRL). Immunoprecipitation by this method yields an activated kinase complex (Draetta et al. (1988), Cell 54:17-26).
# (§2) Assay of p34^cdc2 Kinase Activity: Histone H1 kinase reactions were performed in 50 mM Tris, pH 8.0, 10 mM MgCl2, 0.5 mM DTT, 1 mM EGTA plus 0.1 mM ATP, 1 μCi γ-[^32 P]-ATP and 10 μg histone H1 (Boeringer Mannheim), and a source of p34^cdc2. Reactions were incubated at 30° C. for 20 minutes and stopped by the addition of protein gel sample buffer. Kinase reactions were separated by SDS-PAGE (12.5% gel). The bands were detected by autoradiography and the amount of ^32 P incorporated was quantitated using an Ambis Radioanalytic Imaging System.
# As a further test of the association of p107 with p34^cdc2, and to define the minimal sequence necessary for interaction with p34^cdc2, the effect of p107 peptides on the p34^cdc2 immune complex histone H1 kinase activity was assessed. Both amino- and carboxy-terminal deletions were introduced into the original 30 amino acid peptide (see Table 1). The peptides were synthesized by standard methods and purified by HPLC. Immune complexes were formed as described in Example 4 and resuspended in kinase buffer plus 50 μM of the respective peptide solubilized in N,N-dimethylformamide, or an equal volume of solvent. After incubating the reactions for 15 minutes on ice, histone H1 and γ-[^32 P]-ATP were added and the kinase assays were performed and quantitated as described in Example 4.
# The binding affinity of the 9mer peptide for p34^cdc2 was approximated by relating the percent inhibition of histone H1 kinase activity to peptide concentration. Reactions were performed as described in Example 4. The percent inhibition was quantitated using an Ambis Radioanalytic Imaging System. The percent inhibition was plotted versus the peptide concentration. In calculating a binding constant, it was assumed that the concentration of substrate and peptide were in vast excess of the p34^cdc2 protein, which was assumed to be limiting in the reaction.
# HPV18-E7 protein = target: T2, HPV18-E7 protein (Human papillomavirus type 18, UniProt P06788); assay: biochemical; type: binding
# T2 construct: made in house
# T2 sequence (P06788 whole entry): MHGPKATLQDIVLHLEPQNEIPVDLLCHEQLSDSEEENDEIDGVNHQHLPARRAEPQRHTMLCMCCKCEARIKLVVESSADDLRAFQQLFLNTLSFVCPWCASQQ
# Method: The association of bacterially expressed HPV18-E7 protein with the p107 30mer peptide was analyzed using an ELISA assay. In the experiment depicted in FIG. 3A, a 96-well cluster plate was coated with p107 30mer peptide and incubated with increasing concentration of a MBP-E7 fusion protein or the MBP protein as a control. […] In the experiment depicted in FIG. 3B, MBP-E7 fusion protein (100 ng) was incubated with a p107 30mer peptide-coated plate in the presence of increasing concentrations of free p107 9mer peptide.
# p34^cdc2 [3] = target: T1, p34^cdc2; assay: p107 30mer-sepharose pull-down from HeLa cell lysate, western blot with anti-p34^cdc2 antibody; type: binding; set-up: endogenous in cells; host or cells: HeLa
# Method: as §1
# In order to test whether the α-helix II domain is involved in the interaction of Rb, p107 and cyclin E with p34^cdc2, a 30 amino acid peptide from p107 (residues 692-721: […] [SEQ ID NO:11]) encompassing α-helix II, was synthesized and assayed for its ability to associate with p34^cdc2. […] The concentration of 30mer linked to the bead was 0.85 μmole/ml as determined by HPLC. […] The bound proteins were eluted with increasing concentrations of NaCl, separated by sodium dodecyl sulfate-polyacrylamidegel electrophoresis (SDS-PAGE) (12.5% gel) and transferred to polyvinylidene difluoride (PVDF) membranes. p34^cdc2 was detected by probing the membrane with anti-p34^cdc2 antibody, G6 (Gibco, BRL) (see, Draetta et al. (1988), supra).
# p34^cdc2 [4] = target: T1, p34^cdc2; assay: Histone H1 kinase activity of p107 30mer-sepharose bound versus immunoprecipitated p34^cdc2; type: biochemical; set-up: endogenous in cells; host or cells: HeLa
# Method: as §2
# In order to examine the effect of binding of p34^cdc2 to p107 30mer-sepharose on p34^cdc2 kinase activity, histone H1 kinase activities associated with p107 30mer-sepharose and immunoprecipitated p34^cdc2 were compared as follows. p34^cdc2 was bound to p107 30mer-sepharose as described in Example 2. Histone H1 kinase reactions were performed using either immunoprecipitated or p107 30mer-sepharose bound p34^cdc2. The amount of p34^cdc2 bound to p107 30mer-sepharose was compared with that contained within the immune complex by western blot. Two times the amount of immunoprecipitated p34^cdc2 used in the kinase reaction was blotted to facilitate easier detection. The amount of p34^cdc2 associated with the p107 30mer-sepharose was determined by densitometry to be ≥50 time greater than contained within the immune complexes.
# HPV16-E7 protein = HPV16-E7 protein (Human papillomavirus type 16, UniProt P03129); settings: CaSki cell extract, western blot
# Sequence of HPV16-E7 protein (P03129 whole entry, the tested form may be a part): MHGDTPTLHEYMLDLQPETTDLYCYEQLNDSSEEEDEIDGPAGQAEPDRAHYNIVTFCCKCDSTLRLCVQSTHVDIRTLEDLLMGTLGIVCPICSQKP
# Excerpt: Rb and p107 form specific complexes with the adenovirus E1A oncoprotein and Rb forms a similar complex with the E7 oncoprotein human papillomavirus (HPV). In order to determine whether the p107 30mer peptide domain and Rb may interact with other tumor suppressor proteins or other cellular and viral ligands, p107 30mer peptide binding to cellular and bacterially expressed human papillomavirus (HPV)-E7 protein was examined. p107 30 amino acid peptide-sepharose, prepared as described in Example 2, was incubated with CaSki cell (HPV-16 positive cervical carcinoma) extract and assayed for the binding of E7 protein.
# [5] = Table 1 binding, assay not given, taken as ELISA competition for p34^cdc2 binding, read-out: IC50
Compound,IC50 (p34^cdc2 [1]; [5]) [µM],inhibition at 50 µM (p34^cdc2 [2]) [%],also measured
"LCAFYKMAK [717IK, LCAFYKMAK]",> 100,0,–
"KDRHLDQLLLCAFYIMAK [18mer, KDRHLDQLLLCAFYIMAK]",–,80,–
"LCAFAIMAK [716YA, LCAFAIMAK]",40,0,–
"LCAFYIMAK [9mer, LCAFYIMAK]",9,90,"Kd (p34^cdc2 [1]; ELISA based competition assay, read-out: affinity for p34^cdc2 kinase): ~10 µM; Kd (p34^cdc2 [2]; percent inhibition plotted versus peptide concentration, FIG. 2, read-out: kd calculated from the point of 50% inhibition of histone H1 kinase activity): ~10 µM; Kd (HPV18-E7 protein): ~0.001 µM"
"LCAKYIMAK [715FK, LCAKYIMAK]",> 100,0,–
"SPKKGCAFYI [SPKK-NC5mer, SPKKGCAFYI]",–,0,–
"LCAYYIMAK [715FY, LCAYYIMAK]",45,20,–
"RKRCAFYI [PKG-NC5mer, RKRCAFYI]",–,0,–
"LCAFYIM [C7mer, LCAFYIM]",–,70,–
DLMKDRHLDQLLLCAFYIMAK [21mer],–,70,–
p107 30mer-sepharose: p107 30mer covalently linked to CH-activated sepharose 4B (FEFTLVHCPDLMKDRHLDQLLLCAFYIMAK; cysteine pairing not given here; also: covalently linked to CH-activated sepharose 4B),–,–,"binding to p34^cdc2 (p34^cdc2 [3]; HeLa cell lysate, western blot): binds; stability of the complex with p34^cdc2 to NaCl elution (p34^cdc2 [3]; elution with increasing concentrations of NaCl): stable to 2M NaCl; amount of p34^cdc2 associated relative to that within the immune complexes (p34^cdc2 [4]; western blot densitometry): ≥ 50 time greater; binding to HPV16-E7 protein (HPV16-E7 protein): did bind"
"PKKKRKVCAFYI [SV-NC5mer, PKKKRKVCAFYI]",–,0,–
"CAFYI [NC5mer, CAFYI]",13,82,–
"AFYIMAK [N7mer, AFYIMAK]",–,0,–
"LCEFYIMAK [714AE, LCEFYIMAK]",23,0,–
"LCAFYI [C6mer, LCAFYI]",–,79,–
"YIMAK [N5mer, YIMAK]",–,0,IC50 (p34^cdc2 [1]): > 100 µM
"CAFYIGSPKK [NC5mer-SPKK, CAFYIGSPKK]",–,80,–
"C[C@H](NC(=O)[C@@H](N)CS)C(=O)N[C@@H](Cc1ccccc1)C(=O)N[C@@H](Cc1ccc(O)cc1)C(=O)O [NC4mer, CAFY] (H-CAFY-OH)",–,0,–
"LCAFFIMAK [716YF, LCAFFIMAK]",25,80,–
"LCAAYIMAK [715FA, LCAAYIMAK]",> 100,0,–
"RRCAFYI [RR-NC5mer, RRCAFYI]",–,0,–
"LFAFYIMAK [713CF, LFAFYIMAK]",15,60,decrease in the peptide's ability to inhibit histone H1 kinase activity (p34^cdc2 [2]; versus 9mer): 30%
"LCAFY [C5mer, LCAFY]",–,0,–
CC[C@H](C)[C@H](NC(=O)[C@H](Cc1ccc(O)cc1)NC(=O)[C@H](Cc1ccccc1)NC(=O)[C@H](C)NC(=O)[C@H](CS)NC(=O)[C@H](CC(C)C)NC(=O)[C@H](CC(C)C)NC(=O)[C@H](CC(C)C)NC(=O)[C@H](CCC(N)=O)NC(=O)[C@H](CC(=O)O)NC(=O)[C@H](CC(C)C)NC(=O)[C@H](Cc1c[nH]cn1)NC(=O)[C@H](CCCNC(=N)N)NC(=O)[C@H](CC(=O)O)NC(=O)[C@H](CCCCN)NC(=O)[C@H](CCSC)NC(=O)[C@H](CC(C)C)NC(=O)[C@H](CC(=O)O)NC(=O)[C@@H]1CCCN1C(=O)[C@H](CS)NC(=O)[C@H](Cc1c[nH]cn1)NC(=O)[C@@H](NC(=O)[C@H](CC(C)C)NC(=O)[C@@H](NC(=O)[C@H](Cc1ccccc1)NC(=O)[C@H](CCC(=O)O)NC(=O)[C@@H](N)Cc1ccccc1)[C@@H](C)O)C(C)C)C(=O)N[C@@H](CCSC)C(=O)N[C@@H](C)C(=O)N[C@@H](CCCCN)C(=O)O [30mer] (H-FEFTLVHCPDLMKDRHLDQLLLCAFYIMAK-OH),–,–,specific activity of peptide bound enzyme relative to the specific activity of the immune complex (p34^cdc2 [4]; normalized for the amount of p34^cdc2 protein): 1.4%
"LCAFYIMQK [719AQ, LCAFYIMQK]",–,75,–
"LDQLLLCAFYIMAK [14mer, LDQLLLCAFYIMAK]",–,80,–
